US9809623B2, “α4β7 peptide monomer and dimer antagonists” (Protagonist Therapeutics, Inc., priority 2014, dated 2017)
Numbered stars: 1 amine (or outer) side, 2 acyl side, 3 side chain; on linkers, the order of the positions; unused ones are H or OH. Bridge positions count the residues as written; N and C are the ends. Square brackets hold non-standard residues; d marks the D form. Peptide text beside a SMILES is read from it. I, II: the chains in the order shown. Phe(3,4-Cl2) = N[C@@H](Cc1ccc(Cl)c(Cl)c1)C(=O)O; Phe(2,4-Cl2) = N[C@@H](Cc1ccc(Cl)cc1Cl)C(=O)O; 1Nal = N[C@@H](Cc1cccc2ccccc12)C(=O)O; 2Nal = N[C@@H](Cc1ccc2ccccc2c1)C(=O)O; Diglycolyl = O=C(COCC(=O)[*:2])[*:1]; NMeR = CN[C@@H](CCCNC(=N)N)C(=O)O; Pen = CC(C)(S)[C@H](N)C(=O)O; dNMeK = CN[C@H](CCCCN)C(=O)O

Columns and labels:
[1] = target: T1, α4β1 (Homo sapiens, UniProt P05556+P13612, DEL729-798); assay: α4β1-VCAM Competition ELISA; format: binding; settings: Table 3-B, Selectivity (α4β1); range classes; read-out: α4β1 ELISA IC50
T1 construct: purchased R&D Systems 5668-A4
Description: A Nunc MaxiSorp plate was coated with rh VCAM-1/CD106 Fc chimera (R&D #862-VC) at 400 ng/well in 50 ul per well in 1×PBS and incubated overnight at 4° C. The solution was removed by shaking and then blocked with 250 ul of 1% BSA in 1×PBS per well. The wells were then incubated at room temperature for 1 hr with shaking. Each well was then washed once with wash buffer (50 mM Tris-HCl pH7.6, 100 mM NaCL, 1 mM MnCl2 or MgCl2, 0.05% Tween-20). 25 ul of serial dilutions of peptides starting at 200 μM in assay buffer (Assay buffer: 50 mM Tris-HCl pH7.6, 100 mM NaCl, 1 mM MnCl2 or MgCl2, 0.05% Tween-20) was added to each well. Additionally, 25 ul of α4β1 (R&D Systems #5668-A4) was added to each well at a fixed concentration of 120 nM. The final peptide and α4β1 concentrations were 100 μM and 60 nM, respectively. The plates were then incubated at 37° C. for 2 hr. The solution was then removed by shaking, and each well was washed three times with wash buffer. 50 ul of 9F10 antibody at 4 ug/ml (purified mouse anti-human CD49d, BD Bioscience Cat#555502) was then added to each well, and the plate was incubated at room temperature for 1 hr with shaking. The solution was again removed by shaking, and each well was washed three times with wash buffer. 50 ul of peroxidase-conjugated AffiniPure Goat anti-mouse IgG (Jackson immune research cat #115-035-003) diluted in 1:5000 in assay buffer was added to each well. The plate was incubated at room temperature for 30 min with shaking. Each well was then washed 3 times with wash buffer. 100 ul of TMB was then added to each well and closely observe during developing time. The reaction was stepped with 2N H2SO4 and absorbance was read at 450 nm.

[2] = Simulated Intestinal Fluid (SIF) Stability Assay; format: in vitro ADME, porcine; settings: > means experiment was stopped at that time and half life was not reached; for half-life at 22 μM: pig, simulated intestinal fluid (SIF) with 1% porcine pancreatin, pH 6.5, Table 3-B, read-out: Stabilty SIF t1/2
Outline: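 Peptides (22 μM final) incubated at 37 °C in FASSIF (pH 6.5) with 1% porcine pancreatin; aliquots quenched at various times and analyzed by LC-MS/MS against internal standard. Half-life from first-order exponential decay fit of percent remaining.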

[3] = target: T2, rh integrin α4β7 (Homo sapiens, UniProt P13612+P26010); assay: α4β7-MAdCAM Competition ELISA; format: binding; settings: Table 3-B, Potency (α4β7); range classes; read-out: α4β7 ELISA IC50
T2 construct: purchased R&D Systems 5397-A30
Outline: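 Recombinant human α4β7 was captured on nickel plates at 800 ng/well. Peptide in 3-fold serial dilution (final top 10 μM) competed with MAdCAM-1 (final 10 nM) for 1 h at room temperature in 50 mM Tris pH 7.6, 150 mM NaCl, 1 mM MnCl2 or MgCl2. Bound MAdCAM-1 was detected with anti-human IgG1-HRP/TMB at A450.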

[4] = target: α4β7 (Homo sapiens, UniProt P13612+P26010); assay: α4β7-MAdCAM Cell Adhesion Assay (RPMI 8866 human cells); format: cell-based; parameters: host or cells: RPMI 8866 human B lymphoblastoid cells; settings: Table 3-B, Potency (α4β7); range classes; read-out: α4β7 cell (Hu) IC50
Outline: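 Washed RPMI 8866 cells (200,000/well) in DMEM with 0.1% BSA, 10 mM HEPES pH 7, 1 mM MnCl2 adhered to rh MAdCAM-1/Fc-coated wells with serially diluted peptides, 30-45 min at 37 °C. After three washes, bound cells quantified by MTT, A570, cell-free background subtracted for dose response.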

T1 sequence (P13612 34-977 limits assumed, stated change not applied): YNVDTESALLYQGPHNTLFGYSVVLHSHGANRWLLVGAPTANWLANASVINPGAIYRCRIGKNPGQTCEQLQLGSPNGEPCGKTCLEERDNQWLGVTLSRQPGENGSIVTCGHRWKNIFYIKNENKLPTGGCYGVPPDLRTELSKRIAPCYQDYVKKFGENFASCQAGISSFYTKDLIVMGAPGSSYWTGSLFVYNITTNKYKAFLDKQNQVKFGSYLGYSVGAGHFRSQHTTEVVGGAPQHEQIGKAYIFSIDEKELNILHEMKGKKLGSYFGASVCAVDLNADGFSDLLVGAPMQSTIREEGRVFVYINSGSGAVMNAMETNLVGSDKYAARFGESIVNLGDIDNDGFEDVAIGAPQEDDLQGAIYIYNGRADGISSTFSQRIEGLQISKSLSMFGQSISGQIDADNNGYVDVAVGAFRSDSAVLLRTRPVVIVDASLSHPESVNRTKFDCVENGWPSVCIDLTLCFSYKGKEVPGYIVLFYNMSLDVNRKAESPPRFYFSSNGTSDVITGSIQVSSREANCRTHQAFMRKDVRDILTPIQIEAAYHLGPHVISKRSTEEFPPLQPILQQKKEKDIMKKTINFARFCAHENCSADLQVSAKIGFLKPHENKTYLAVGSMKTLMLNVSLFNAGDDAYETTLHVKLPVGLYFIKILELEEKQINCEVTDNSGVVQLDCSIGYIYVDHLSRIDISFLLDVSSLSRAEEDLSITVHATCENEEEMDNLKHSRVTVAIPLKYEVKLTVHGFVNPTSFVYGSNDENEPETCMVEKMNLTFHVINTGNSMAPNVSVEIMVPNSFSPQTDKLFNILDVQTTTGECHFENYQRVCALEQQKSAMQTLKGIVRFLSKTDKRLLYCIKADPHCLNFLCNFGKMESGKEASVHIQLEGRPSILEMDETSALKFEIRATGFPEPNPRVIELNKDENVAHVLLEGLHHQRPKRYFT
T1 sequence (P05556 21-728 limits assumed, stated change not applied): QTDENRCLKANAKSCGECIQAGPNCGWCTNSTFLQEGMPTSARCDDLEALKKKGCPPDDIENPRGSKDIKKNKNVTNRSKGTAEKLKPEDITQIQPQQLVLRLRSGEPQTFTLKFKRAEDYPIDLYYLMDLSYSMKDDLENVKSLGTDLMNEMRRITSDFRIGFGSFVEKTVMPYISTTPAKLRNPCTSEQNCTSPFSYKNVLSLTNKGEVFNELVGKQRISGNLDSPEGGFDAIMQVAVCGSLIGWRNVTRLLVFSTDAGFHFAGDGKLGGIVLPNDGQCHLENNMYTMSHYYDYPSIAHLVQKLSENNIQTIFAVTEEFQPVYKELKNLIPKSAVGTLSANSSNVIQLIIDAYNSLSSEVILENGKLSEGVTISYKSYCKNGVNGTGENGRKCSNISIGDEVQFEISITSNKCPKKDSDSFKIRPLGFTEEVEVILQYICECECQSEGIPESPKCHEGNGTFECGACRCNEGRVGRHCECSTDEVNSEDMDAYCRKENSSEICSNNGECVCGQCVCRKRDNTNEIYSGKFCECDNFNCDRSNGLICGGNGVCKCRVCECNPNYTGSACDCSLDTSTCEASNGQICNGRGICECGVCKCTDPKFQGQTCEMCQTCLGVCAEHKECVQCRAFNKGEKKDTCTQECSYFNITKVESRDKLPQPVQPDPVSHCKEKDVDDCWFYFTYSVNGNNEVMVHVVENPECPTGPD
T2 sequence (P13612 34-977 limits assumed): as the sequence (P13612 34-977 limits assumed, stated change not applied) above
T2 sequence (P26010 20-723 limits assumed): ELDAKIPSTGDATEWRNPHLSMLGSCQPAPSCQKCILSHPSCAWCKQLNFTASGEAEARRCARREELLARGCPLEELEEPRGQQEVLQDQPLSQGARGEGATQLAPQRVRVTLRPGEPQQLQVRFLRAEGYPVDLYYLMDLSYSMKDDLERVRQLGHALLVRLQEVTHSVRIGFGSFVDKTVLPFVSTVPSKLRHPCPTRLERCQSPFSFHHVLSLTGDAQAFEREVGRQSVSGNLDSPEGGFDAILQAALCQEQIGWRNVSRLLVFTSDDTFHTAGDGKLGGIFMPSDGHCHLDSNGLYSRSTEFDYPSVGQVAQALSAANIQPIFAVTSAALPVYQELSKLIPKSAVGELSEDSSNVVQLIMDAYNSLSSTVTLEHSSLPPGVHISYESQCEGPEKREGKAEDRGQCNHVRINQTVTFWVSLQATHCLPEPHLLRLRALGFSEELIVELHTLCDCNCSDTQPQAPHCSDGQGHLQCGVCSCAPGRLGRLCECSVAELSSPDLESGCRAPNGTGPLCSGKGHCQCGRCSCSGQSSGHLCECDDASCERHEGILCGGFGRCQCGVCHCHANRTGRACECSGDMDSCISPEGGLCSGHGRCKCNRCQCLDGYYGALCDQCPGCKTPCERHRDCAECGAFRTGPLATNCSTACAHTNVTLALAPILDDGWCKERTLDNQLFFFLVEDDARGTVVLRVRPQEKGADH
α4β7, sequence (P13612 34-1032): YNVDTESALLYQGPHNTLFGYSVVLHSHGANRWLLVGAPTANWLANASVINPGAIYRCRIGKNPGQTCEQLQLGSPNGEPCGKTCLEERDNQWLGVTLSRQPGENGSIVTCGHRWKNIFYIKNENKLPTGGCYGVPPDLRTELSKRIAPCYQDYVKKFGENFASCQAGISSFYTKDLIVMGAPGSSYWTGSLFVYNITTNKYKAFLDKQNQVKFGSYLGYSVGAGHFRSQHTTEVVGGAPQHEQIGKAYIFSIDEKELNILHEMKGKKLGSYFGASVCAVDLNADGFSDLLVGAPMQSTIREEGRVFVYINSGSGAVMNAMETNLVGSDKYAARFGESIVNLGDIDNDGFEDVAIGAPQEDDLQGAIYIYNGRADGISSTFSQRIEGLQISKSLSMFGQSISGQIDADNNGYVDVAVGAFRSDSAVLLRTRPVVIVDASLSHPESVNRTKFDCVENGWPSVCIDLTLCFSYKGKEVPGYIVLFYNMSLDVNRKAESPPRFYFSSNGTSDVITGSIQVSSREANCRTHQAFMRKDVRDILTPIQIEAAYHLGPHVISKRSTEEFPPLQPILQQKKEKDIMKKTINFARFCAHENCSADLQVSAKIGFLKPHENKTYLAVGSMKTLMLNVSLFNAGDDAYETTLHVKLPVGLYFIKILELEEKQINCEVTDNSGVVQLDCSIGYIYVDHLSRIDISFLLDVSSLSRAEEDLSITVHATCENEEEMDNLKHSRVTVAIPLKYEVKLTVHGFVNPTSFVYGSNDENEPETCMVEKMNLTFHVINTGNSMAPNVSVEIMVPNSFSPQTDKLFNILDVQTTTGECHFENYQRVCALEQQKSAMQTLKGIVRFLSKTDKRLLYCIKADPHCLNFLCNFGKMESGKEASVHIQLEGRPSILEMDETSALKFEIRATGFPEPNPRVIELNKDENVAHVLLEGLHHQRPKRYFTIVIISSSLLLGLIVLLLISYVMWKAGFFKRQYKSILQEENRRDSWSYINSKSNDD
α4β7, sequence (P26010 20-798): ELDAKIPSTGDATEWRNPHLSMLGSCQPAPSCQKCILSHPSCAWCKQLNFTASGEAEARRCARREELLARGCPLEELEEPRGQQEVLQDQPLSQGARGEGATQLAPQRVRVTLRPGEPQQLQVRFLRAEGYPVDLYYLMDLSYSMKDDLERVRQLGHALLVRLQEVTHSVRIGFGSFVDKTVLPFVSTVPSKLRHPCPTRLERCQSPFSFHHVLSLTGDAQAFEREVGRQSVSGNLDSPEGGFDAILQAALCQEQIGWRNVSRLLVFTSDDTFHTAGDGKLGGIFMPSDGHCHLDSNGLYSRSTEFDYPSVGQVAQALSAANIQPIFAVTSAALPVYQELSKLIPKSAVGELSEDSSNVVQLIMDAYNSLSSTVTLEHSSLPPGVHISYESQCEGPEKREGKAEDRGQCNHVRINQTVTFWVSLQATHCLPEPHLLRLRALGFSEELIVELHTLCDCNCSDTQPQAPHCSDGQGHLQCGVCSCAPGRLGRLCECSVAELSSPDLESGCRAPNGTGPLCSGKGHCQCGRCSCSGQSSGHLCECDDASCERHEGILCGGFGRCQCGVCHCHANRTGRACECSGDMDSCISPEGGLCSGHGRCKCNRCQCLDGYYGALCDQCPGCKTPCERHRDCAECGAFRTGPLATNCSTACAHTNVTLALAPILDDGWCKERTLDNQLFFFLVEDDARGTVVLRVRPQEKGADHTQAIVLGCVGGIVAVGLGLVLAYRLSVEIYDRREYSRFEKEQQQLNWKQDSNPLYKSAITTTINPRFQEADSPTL

Row | Structure (SMILES) | IC50 [1] [nM] | half-life at 22 μM [2] [min] | IC50 [3] [nM] | IC50 [4] [nM] | Stabilty SIF t1/2 ([2]; Table 3-B) [min]
1 | CC(=O)N[C@@H]1C(=O)N(C)[C@@H](CCCNC(=N)N)C(=O)N[C@@H](CO)C(=O)N[C@@H](CC(=O)O)C(=O)N[C@@H]([C@@H](C)O)C(=O)N[C@@H](CC(C)C)C(=O)N[C@H](C(=O)N[C@@H](Cc2cccc3ccccc23)C(=O)N[C@H](CCC(=O)O)C(=O)N(C)[C@H](CCCCNC(=O)COCC(=O)NCCCC[C@H](C(N)=O)N(C)C(=O)[C@@H](CCC(=O)O)NC(=O)[C@H](Cc2cccc3ccccc23)NC(=O)[C@H]2NC(=O)[C@H](CC(C)C)NC(=O)[C@H]([C@@H](C)O)NC(=O)[C@H](CC(=O)O)NC(=O)[C@H](CO)NC(=O)[C@H](CCCNC(=N)N)N(C)C(=O)[C@@H](NC(C)=O)C(C)(C)SSC2(C)C)C(N)=O)C(C)(C)SSC1(C)C [compound 38] (I: Ac-[Pen][NMeR]SDTL[Pen][1Nal][dE][dNMeK]-NH2 / II: Ac-[Pen][NMeR]SDTL[Pen][1Nal][dE][dNMeK]-NH2; disulfide I:1-I:7, II:1-II:7; linker I:10-II:10 via Diglycolyl) | 100 to 500 | > 180 | < 10 | < 10 | 
2 | CC(=O)N[C@@H]1C(=O)N(C)[C@@H](CCCNC(=N)N)C(=O)N[C@@H](CO)C(=O)N[C@@H](CC(=O)O)C(=O)N[C@@H]([C@@H](C)O)C(=O)N[C@@H](CC(C)C)C(=O)N[C@H](C(=O)N[C@@H](Cc2ccc3ccccc3c2)C(=O)N[C@@H](CCC(=O)O)C(=O)N(C)[C@H](CCCCNC(=O)COCC(=O)NCCCC[C@H](C(N)=O)N(C)C(=O)[C@H](CCC(=O)O)NC(=O)[C@H](Cc2ccc3ccccc3c2)NC(=O)[C@H]2NC(=O)[C@H](CC(C)C)NC(=O)[C@H]([C@@H](C)O)NC(=O)[C@H](CC(=O)O)NC(=O)[C@H](CO)NC(=O)[C@H](CCCNC(=N)N)N(C)C(=O)[C@@H](NC(C)=O)C(C)(C)SSC2(C)C)C(N)=O)C(C)(C)SSC1(C)C [compound 41] (I: Ac-[Pen][NMeR]SDTL[Pen][2Nal]E[dNMeK]-NH2 / II: Ac-[Pen][NMeR]SDTL[Pen][2Nal]E[dNMeK]-NH2; disulfide I:1-I:7, II:1-II:7; linker I:10-II:10 via Diglycolyl) | 100 to 500 | > 180 | < 10 | < 10 | 
3 | CC(=O)N[C@@H]1C(=O)N(C)[C@@H](CCCNC(=N)N)C(=O)N[C@@H](CO)C(=O)N[C@@H](CC(=O)O)C(=O)N[C@@H]([C@@H](C)O)C(=O)N[C@@H](CC(C)C)C(=O)N[C@H](C(=O)N[C@@H](Cc2cccc3ccccc23)C(=O)N[C@@H](CCC(=O)O)C(=O)N[C@H](CCCCNC(=O)COCC(=O)NCCCC[C@@H](NC(=O)[C@H](CCC(=O)O)NC(=O)[C@H](Cc2cccc3ccccc23)NC(=O)[C@H]2NC(=O)[C@H](CC(C)C)NC(=O)[C@H]([C@@H](C)O)NC(=O)[C@H](CC(=O)O)NC(=O)[C@H](CO)NC(=O)[C@H](CCCNC(=N)N)N(C)C(=O)[C@@H](NC(C)=O)C(C)(C)SSC2(C)C)C(N)=O)C(N)=O)C(C)(C)SSC1(C)C [compound 24] (I: Ac-[Pen][NMeR]SDTL[Pen][1Nal]E[dK]-NH2 / II: Ac-[Pen][NMeR]SDTL[Pen][1Nal]E[dK]-NH2; disulfide I:1-I:7, II:1-II:7; linker I:10-II:10 via Diglycolyl) | 100 to 500 | 56 | < 10 | < 10 | 
4 | CC(=O)N[C@@H]1C(=O)N(C)[C@@H](CCCNC(=N)N)C(=O)N[C@@H](CO)C(=O)N[C@@H](CC(=O)O)C(=O)N[C@@H]([C@@H](C)O)C(=O)N[C@@H](CC(C)C)C(=O)N[C@H](C(=O)N[C@@H](Cc2ccc(Cl)cc2Cl)C(=O)N[C@@H](CCC(=O)O)C(=O)N[C@H](CCCCNC(=O)COCC(=O)NCCCC[C@@H](NC(=O)[C@H](CCC(=O)O)NC(=O)[C@H](Cc2ccc(Cl)cc2Cl)NC(=O)[C@H]2NC(=O)[C@H](CC(C)C)NC(=O)[C@H]([C@@H](C)O)NC(=O)[C@H](CC(=O)O)NC(=O)[C@H](CO)NC(=O)[C@H](CCCNC(=N)N)N(C)C(=O)[C@@H](NC(C)=O)C(C)(C)SSC2(C)C)C(N)=O)C(N)=O)C(C)(C)SSC1(C)C [compound 42] (I: Ac-[Pen][NMeR]SDTL[Pen][Phe(2,4-Cl2)]E[dK]-NH2 / II: Ac-[Pen][NMeR]SDTL[Pen][Phe(2,4-Cl2)]E[dK]-NH2; disulfide I:1-I:7, II:1-II:7; linker I:10-II:10 via Diglycolyl) | 100 to 500 | 51 | < 10 | < 10 | 49
5 | CC(=O)N[C@@H]1C(=O)N(C)[C@@H](CCCNC(=N)N)C(=O)N[C@@H](CO)C(=O)N[C@@H](CC(=O)O)C(=O)N[C@@H]([C@@H](C)O)C(=O)N[C@@H](CC(C)C)C(=O)N[C@H](C(=O)N[C@@H](Cc2ccc(O)cc2)C(=O)N[C@@H](CCC(=O)O)C(=O)N[C@H](CCCCNC(=O)COCC(=O)NCCCC[C@@H](NC(=O)[C@H](CCC(=O)O)NC(=O)[C@H](Cc2ccc(O)cc2)NC(=O)[C@H]2NC(=O)[C@H](CC(C)C)NC(=O)[C@H]([C@@H](C)O)NC(=O)[C@H](CC(=O)O)NC(=O)[C@H](CO)NC(=O)[C@H](CCCNC(=N)N)N(C)C(=O)[C@@H](NC(C)=O)C(C)(C)SSC2(C)C)C(N)=O)C(N)=O)C(C)(C)SSC1(C)C [compound 22] (I: Ac-[Pen][NMeR]SDTL[Pen]YE[dK]-NH2 / II: Ac-[Pen][NMeR]SDTL[Pen]YE[dK]-NH2; disulfide I:1-I:7, II:1-II:7; linker I:10-II:10 via Diglycolyl) | 100 to 500 | < 20 | < 10 | < 10 | 
6 | CC(=O)N[C@@H]1C(=O)N(C)[C@@H](CCCNC(=N)N)C(=O)N[C@@H](CO)C(=O)N[C@@H](CC(=O)O)C(=O)N[C@@H]([C@@H](C)O)C(=O)N[C@@H](CC(C)C)C(=O)N[C@H](C(=O)N[C@@H](Cc2ccc(Cl)c(Cl)c2)C(=O)N[C@@H](CCC(=O)O)C(=O)N[C@H](CCCCNC(=O)COCC(=O)NCCCC[C@@H](NC(=O)[C@H](CCC(=O)O)NC(=O)[C@H](Cc2ccc(Cl)c(Cl)c2)NC(=O)[C@H]2NC(=O)[C@H](CC(C)C)NC(=O)[C@H]([C@@H](C)O)NC(=O)[C@H](CC(=O)O)NC(=O)[C@H](CO)NC(=O)[C@H](CCCNC(=N)N)N(C)C(=O)[C@@H](NC(C)=O)C(C)(C)SSC2(C)C)C(N)=O)C(N)=O)C(C)(C)SSC1(C)C [compound 43] (I: Ac-[Pen][NMeR]SDTL[Pen][Phe(3,4-Cl2)]E[dK]-NH2 / II: Ac-[Pen][NMeR]SDTL[Pen][Phe(3,4-Cl2)]E[dK]-NH2; disulfide I:1-I:7, II:1-II:7; linker I:10-II:10 via Diglycolyl) | 100 to 500 | 21 | < 10 | 10 to 25 | 
7 | CC(=O)N[C@@H]1C(=O)N(C)[C@@H](CCCNC(=N)N)C(=O)N[C@@H](CO)C(=O)N[C@@H](CC(=O)O)C(=O)N[C@@H]([C@@H](C)O)C(=O)N[C@@H](CC(C)C)C(=O)N[C@H](C(=O)N[C@@H](Cc2cccc3ccccc23)C(=O)N[C@H](CCC(=O)O)C(=O)N[C@H](CCCCNC(=O)COCC(=O)NCCCC[C@@H](NC(=O)[C@@H](CCC(=O)O)NC(=O)[C@H](Cc2cccc3ccccc23)NC(=O)[C@H]2NC(=O)[C@H](CC(C)C)NC(=O)[C@H]([C@@H](C)O)NC(=O)[C@H](CC(=O)O)NC(=O)[C@H](CO)NC(=O)[C@H](CCCNC(=N)N)N(C)C(=O)[C@@H](NC(C)=O)C(C)(C)SSC2(C)C)C(N)=O)C(N)=O)C(C)(C)SSC1(C)C [compound 32] (I: Ac-[Pen][NMeR]SDTL[Pen][1Nal][dE][dK]-NH2 / II: Ac-[Pen][NMeR]SDTL[Pen][1Nal][dE][dK]-NH2; disulfide I:1-I:7, II:1-II:7; linker I:10-II:10 via Diglycolyl) | 100 to 500 | > 180 | < 10 | 10 to 25 | 
